According to paper PMC5655689, “Therapeutic potential of the phosphino Cu(I) complex (HydroCuP) in the treatment of solid tumors” (Scientific Reports, 2017):
“And” between values parts separate entries of the source, which are not always exact repeats. Equal values may be shown once.

Assays:
[1] = system: LoVo human colon cancer spheroids; test: 3D spheroid cell viability, acid phosphatase (APH) assay, LoVo; format: cell-based; conditions: 72 h, APH test, read-out: IC50 (μM) ± SD LoVo
Procedure: (§1) In order to improve the predictive capacity of the in vitro assays, we tested HydroCuP activity in two 3D cell cultures of human colon cancer cells, HCT-15 and LoVo. The colon cancer spheroids were treated with HydroCuP for 72 h and the cell viability was assessed by means of the acid phosphatase (APH) assay (Fig. 1, panel A).
(§2) Figure 1 Activity in 3D cell cultures. (A) Spheroids (2.5 × 10^3 cells/well) were treated for 72 h with increasing concentrations of tested compounds. The growth inhibitory effect was evaluated by means of APH test. IC50 values were calculated from the dose-survival curves by four parameter logistic model (P < 0.05). SD = standard deviation.
(§3) Spheroids were initiated in liquid overlay by seeding 2.5 × 10^3 HCT-15 and LoVo cells/well in phenol red-free RPMI-1640 medium (Sigma Chemical Co.), containing 10% FCS and supplemented with 20% methyl cellulose stock solution. A total of 150 μl of this cell suspension was transferred to each well of a round bottom non-tissue culture treated 96 well-plate (Greiner Bio-one, Kremsmünster, Austria) to allow spheroid formation within 72 h.
(§4) A modified APH assay, which is based on quantification of cytosolic acid phosphatase activity, was used for determining cell viability in spheroids. Briefly, the pre-seeded spheroids were treated with fresh medium containing the compound to be studied at the appropriate concentration (range 5–150 μM). Triplicate cultures were established for each treatment. After 72 h, each well was treated with 100 μL of the assay buffer (0.1 M sodium acetate, 0.1% Triton-X-100, supplemented with ImmunoPure p-nitrophenyl phosphate; Sigma Chemical Co.) and, following 3 h of incubation, 10 μL of 1 M NaOH solution were added. The inhibition of the cell growth induced by the tested complexes was detected by measuring the absorbance of each well at 405 nm, using a Bio-Rad 680 microplate reader. Mean absorbance for each drug dose was expressed as a percentage of the control untreated well absorbance (T/C) and plotted vs drug concentration. IC50 values, the drug concentrations that reduce the mean absorbance at 405 nm 50% of those in the untreated control wells, were calculated by four-parameter logistic (4-PL) model. Evaluation was based on means from at least four independent experiments.

[2] = system: Lewis Lung Carcinoma (LLC); test: In vivo antitumor activity towards Lewis Lung Carcinoma (LLC) implanted i.m. in C57BL mice; set-up: species or system mouse; conditions: for Average tumor weight (mean ± S.D., g) / Inhibition of tumor growth (%): day 15; for Body weight changes: LLC-bearing C57BL mice
Procedure: The schedule of HydroCuP administration in vivo was initially determined by assessing the total dose that could be injected without undue toxicity for different schedules in nontumor-bearing C57BL mice (data not shown). […] Three schedules of i.p. HydroCuP were administered: early treatment (days 3, 5, 7 and 9 after tumor inoculum), intermediate treatment (days 7–14) and late treatment with split-doses (days 9–11 with a loading dose and days 12–14 with a lower maintenance dose). […] Cisplatin treatment schedule was selected according to standard protocols designed to optimize its efficacy and minimize the occurrence of adverse events. For the early treatment, control mice received the vehicle (0.9% NaCl). HydroCuP was dosed at 25, 35 and 50 mg/kg i.p. on days 3, 5, 7, 9, 11 and 13 after tumor implantation. Cisplatin was dosed at 1.5 mg/kg i.p. on days 3, 5, 7, 9, 11 and 13 after tumor implantation.
The mice were purchased from Charles River, Italy, housed in steel cages under controlled environmental conditions (constant temperature, humidity, and 12 h dark/light cycle), and alimented with commercial standard feed and tap water ad libitum. The LLC cell line was purchased from ECACC, United Kingdom. The LLC cell line was maintained in DMEM (Euroclone, Pero, Italy) supplemented with 10% heat-inactivated foetal bovine serum (Euroclone, Pero, Italy), 10 mM L-glutamine, 100 U/mL penicillin, and 100 µg/mL streptomycin in a 5% CO2 air incubator at 37 °C. The LLC was implanted intramuscularly (i.m.) as a 2 × 10^6 cell inoculum into the right hind leg of 8-week old male and female C57BL mice (24 ± 3 g body weight). The antitumor activity of HydroCuP in LLC tumor model has been investigated by means of different schedules (early treatment, intermediate treatment and late treatment) and compared with that promoted by the reference metallodrug, CDDP. In the early-stage treatment, animals were treated at day 3, 5, 7, 9, 11 and 13 after the tumor cell inoculum with an i.p. injection of HydroCuP (25, 35 and 50 mg/kg), CDDP (1.5 mg/kg) or the vehicle solution (0.9% NaCl).
In the intermediate treatment, animals were treated after 7 days from tumor implantation (visible tumor) with daily i.p. doses of HydroCuP (30 and 50 mg/kg), CDDP (1.5 mg/kg) or the vehicle solution (0.9% NaCl). In the late treatment, animals were treated after 9 days from tumor implantation (palpable tumor) with i.p. doses of HydroCuP (50 mg/kg) from day 9 to day 11 and with i.p. doses of HydroCuP (30 mg/kg) from day 12 to day 14, or with daily doses of CDDP (1.5 mg/kg) or with the vehicle solution (0.9% NaCl). At day 15, animals were sacrificed, the legs were amputated at the proximal end of the femur, and the inhibition of tumor growth was determined according to the difference in weight of the tumor-bearing leg and the healthy leg of the animals expressed as a percentage referring to the control animals. Body weight was measured every 2 days and was taken as a parameter for systemic toxicity.

[3] = Nephrotoxicity: urinary biomarkers (uTP, NAG) in Sprague Dawley rats; format: in vivo, rat; conditions: single i.p. 1.5 mg/kg, urine 24, 72, 120 h
Procedure: Figure 5 Neurotoxicity studies. […] Bar: 500 µm. […] Nephrotoxicity studies. […] Error bars indicate the S.D. The potential nephrotoxic effect of HydroCuP was evaluated by measuring some specific biomarkers in urines obtained from 8-week-old male Sprague Dawley rats treated with a single i.p. injection of HydroCuP and CDDP. Urines of the treated animals were collected after 24, 72 and 120 h, and urinary total protein (uTP) and N-acetyl-β-D-glucosaminidase (NAG) were evaluated as signs of nephrotoxicity. […] On the contrary, treatment with HydroCuP determined a 24 h excretion of uTP roughly 12 times lower than that recorded with CDDP (Fig. 5, panel D). Following 120 h, the levels of uTP excreted by HydroCuP were 11 times lower compared with the reference metallodrug. Eight-week-old male Sprague Dawley rats were randomly allocated to five groups (five animals per group) and treated with a single i.p. injection of HydroCuP (50 mg/kg) or the vehicle solution (0.2 mL saline solution, control). Cisplatin (1.5 mg/kg,) was also used under the same experimental conditions for comparison purposes. […] Later, urines were centrifuged (150 g for 10 minutes at room temperature) to discard debris and aliquoted to measure creatinine, uTP and NAG. Urine creatinine assays were performed using creatinine assay kit from Sigma Chemical Co. (St. Louis, MO). uTPs were measured by means of BioRad Total Protein Test (Hercules, CA). Urinary NAG was measured spectrophotometrically with the NAG kit (Roche diagnostics, Basel, Switzerland) according to the manufacturer’s protocols. uTP and NAG are expressed as grams per millimoles of creatinine (g mmol^−1 creatinine).

[4] = set-up: method as in PMID 24035926; conditions: patients under cisplatin treatment; cited from earlier work
[5] = system: DRG explants from 15 day-embryonic Sprague-Dawley rats; test: Neurotoxicity: neurite elongation in DRG explants; conditions: 48 h, DRG explants with NGF; for Neurotoxic effect (neurite elongation): OXP 5, 7.5, 10 μM, HydroCuP 5, 10, 20 μM
Procedure: To investigate the potential neurotoxic effect of HydroCuP, we employed a well-established in vitro model based on organotypic cultures of DRG from 15-day-old rat embryos. Neurite elongation under NGF influence was evaluated in DRG explants. […] For comparison purposes, the effect induced by the reference drugs OXP and CDDP was also tested.
OXP and HydroCuP toxicity at 48 h in DRG explants from 15 day-embryonic Sprague-Dawley rats. Representative images of neurite length in maturing DRG explants with different concentrations of OXP and HydroCuP (A). Bar: 500 µm.
DRG from E15 Sprague-Dawley rats (Envigo, San Pietro al Natisone, Italy) were aseptically removed and cultured onto a single layer of rat tail collagen surfaces in 35-mm dishes as previously described[36].
The DRG were incubated in AN2 medium [MEM added with 1.4 mM L-glutamine (Euroclone, Pero, Italy), 10% calf bovine serum (Hyclone, Thermo Scientific, Logan, UT) 50 µg/ml ascorbic acid, 0.6% glucose (Sigma-Aldrich) in the presence of 5 ng/ml nerve growth factor (NGF; Life Technologies, Monza, Italy) in a 5% CO2 humidified incubator at 37 °C.
To evaluate the neurotoxicity of HydroCuP and OXP, the DRG explants were treated for 2 h with NGF and subsequently exposed to each drug at different concentrations for 48 h. OXP was tested at 5, 7.5 and 10 μM while 5, 10 and 20 μM of HydroCuP was used. DRG treated with AN2 medium supplemented with 5 ng/ml NGF alone were used as controls. Phase-contrast micrographs were taken, and the length of the longest neurite in each DRG was measured by Image J (NIH, Bethesda, MD), using a standard calibration grating photographed at the same magnification. A compound is considered neurotoxic when the mean neurite elongation is reduced by 50% or more after drug exposure vs control.

[6] = system: HCT-15 human colon cancer spheroids; test: 3D spheroid cell viability, acid phosphatase (APH) assay, HCT-15; format: cell-based; conditions: HCT-15 spheroids, 72 h, APH test; read-out: IC50 (μM) ± SD HCT-15
Procedure: as §1, §2, §3, §4

[7] = system: LoVo colorectal oxaliplatin-sensitive xenograft; test: In vivo activity toward LoVo (OXP-sensitive) tumor xenograft in BALB/c nu/nu mice
Procedure: (§5) To this aim, we developed the OXP-sensitive and OXP-resistant LoVo xenografts in BALB/c nu/nu mice. […] OXP-sensitive or OXP-resistant LoVo cells (1 × 10^7) were injected in the flank of mice. Once tumor was established (tumor volumes of about 0.4 cm^3, around 14 days after tumor inoculation), mice were randomly divided into six groups (6 animals per group, 8 controls). The HydroCuP-treated groups (6 mice each group) received daily 30 mg/kg by i.p. injection and the OXP-treated group was given 2 mg/kg by i.p. injection. At day 30, animals were sacrificed, and the inhibition of tumor growth was determined (Fig. 4, panel A). Measurements of body weights were recorded from day 14 every 2 days until the experimental endpoint (Fig. 4, panel B).
(§6) (A) LoVo and LoVo-OXP tumor xenografts in 6-week-old BALB/c nu/nu mice by injecting 1 × 10^7 tumor cells subcutaneously on the left dorsal flank. After 24 h from tumor implantation, mice randomly divided into six groups (6 animals per group). Chemotherapy delayed until day 14 (tumor volumes of about 0.4 cm^3). From day 14, HydroCuP dosed daily at 30 mg/kg i.p., OXP dosed daily at 2 mg/kg i.p. At day 30, animals sacrificed, and the inhibition of tumor growth determined by comparing the volume of the control group and the treatment group expressed as percentage referred to the control animals. Error bars indicate the S.D. *p < 0.05, **p < 0.01, with respect to control. […] Body weight was measured every two days and was taken as a parameter of systemic toxicity. The error bars indicate the S.D. **P < 0.01; *P < 0.05.
(§7) LoVo and LoVo-OXP tumor xenografts were established in 6-week-old BALB/c nu/nu mice by injecting 1 × 10^7 tumor cells subcutaneously (100 μL in serum free medium) on the left dorsal flank. After 24 h from tumor implantation, mice were randomly divided into six groups (6 animals per group, 8 controls). Chemotherapy was delayed until the tumor was about 0.4 cm^3 (day 14). From day 14, HydroCuP was dosed daily at 30 mg/kg i.p. whereas OXP was dosed daily at 2 mg/kg i.p. Measurements of body weights and tumor volumes were recorded from day 14 every 2 days until the experimental endpoint. The long axis (L) and the short axis (S) were measured with callipers, and the tumor volume (V) was calculated using the following equation: V = SxSxL/2. At day 30, animals were sacrificed, and the inhibition of tumor growth was determined by comparing the volume of the control group and the treatment group expressed as percentage referred to the control animals.

[8] = system: LoVo colorectal oxaliplatin-resistant xenograft; test: In vivo activity toward LoVo-OXP (OXP-resistant) tumor xenograft in BALB/c nu/nu mice
Procedure: as §5, §6, §7

[9] = patients, reported by the Food and Drug Administration; cited from earlier work
[10] = Early treatment, 1.5 mg/kg i.p. days 3, 5, 7, 9, 11, 13
[11] = 2 mg/kg daily i.p. from day 14, day 30

| SMILES | IC50 [1] | Average tumor weight (mean ± S.D., g) [2, 10] | Inhibition of tumor growth (%) [2, 10] | Body weight changes ([2]; Early treatment, 15 days) | Average tumor weight (mean ± S.D., g) ([2]; Intermediate treatment, 1.5 mg/kg daily i.p. day 7-14) | Inhibition of tumor growth (%) ([2]; Intermediate treatment, 1.5 mg/kg daily i.p. day 7-14, 1.5 mg/kg) | Body weight changes ([2]; Intermediate treatment) | Average tumor weight (mean ± S.D., g) ([2]; Late treatment, 1.5 mg/kg daily i.p. from day 9) | Inhibition of tumor growth (%) ([2]; Late treatment, 1.5 mg/kg daily i.p. from day 9, 1.5 mg/kg) | NAG [3] | uTP excretion [3] | Patients with irreversible renal damage [4] | Neurotoxic effect (neurite elongation) [5] | IC50 [6] | Body weight loss ([7]; 2 mg/kg daily i.p.) | Inhibition of tumor growth [7, 11] | Body weight loss ([8]; 2 mg/kg daily i.p.) | Inhibition of tumor growth [8, 11] | Reduction of neurite length ([5]; 7.5 µM) | Rate of symptomatic neurotoxicity with any severity [9] |
| --- | --- | --- | --- | --- | --- | --- | --- | --- | --- | --- | --- | --- | --- | --- | --- | --- | --- | --- | --- | --- |
| [NH2][Pt]([NH2])([Cl])[Cl] [CDDP, cisplatin, reference compound] | 60.6 ± 6.28 µM | 0.168 ± 0.10 g | 73.66% | substantial weight loss | 0.061 ± 0.03 g | 87% and 87.84% | elevated weight loss | 0.118 ± 0.10 g | 73% and 72.68% | significant increase | significant increase of uTP excretion | about one-third | significantly reduced neurite elongation in a dose-dependent manner | 68.2 ± 4.58 µM |  |  |  |  |  |  |
| O=C1[O][Pt]2([NH][C@@H]3CCCC[C@H]3[NH]2)[O]C1=O [OXP, oxaliplatin] | 22.2 ± 4.75 µM |  |  |  |  |  |  |  |  |  |  |  | significantly reduced neurite elongation in a dose-dependent manner | 30.2 ± 2.34 µM | about 23% | about 55% | about 23% | 20% | 50% | more than 70% |
